Results on two molecules are retold here after US20250241962A1, “METHODS AND COMPOSITIONS FOR INCREASING NEURONAL ACTIVITY AND SYNAPTIC PLASTICITY” (SanBio, Inc., priority 2024, published 2025).

The test system of series [1] is vandefitemcel (or SB623 cells). In words: PrestoBlue cell viability of vandefitemcel treated with CB-839. It is filed as cell-based, human. As to conditions: incubation with CB-839, PrestoBlue HS. As to the method: Approximately 50 μL of conditioned medium (CM) was used to determine the glutamate concentration and cell viability. For this assay, PrestoBlue™ high-sensitivity (HS) Cell Viability Reagent (from Thermo Fisher Scientific, Waltham, MA) was used and the reaction absorbance of each sample was read after 2 hours of incubation following the manual procedure provided by the manufacturer.
Glutamate can be involved in cell metabolism, where it is transformed into α-ketoglutarate and then enters into the tricarboxylic acid cycle to generate ATP [25].

The next series relates to glutamate receptor. In words: Glutamate receptor blockage on iFbN culture (MEA spike activity). It is filed as cell-based, human. The conditions noted are these: 50 μM. As to the method: Glutamatergic or GABAergic neurons, 9×10^4 cells per well or 1×10^5 cells per well, were plated in 25 μL volume cell in BrainPhys™ medium supplemented with NeuroCult™ SM1 neuronal supplement and incubated for 30-45 minutes at 37° C. and 5% CO2. For coculturing, vandefitemcel (or SB623) cells or astrocytes were cocultured by adding 10-20 μL of cell solution with 1.5×10^4 cells per well following a new incubation for 45 minutes at 37° C. and 5% CO2. Fresh medium was added to reach a volume of 400 μL per well and cells incubated at 37° C. and 5% CO2. Half of the medium volume was changed every three or four days. To isolate the presynaptic activity on MEAs with iFbNs after 50 days of culture, 50 μM of the broad glutamate receptor antagonist Kynurenic acid (from R&D Systems, Minneapolis, MN) was added at 90 seconds from the start of the recording. Spike activity was assessed to detect the blockage of glutamate receptor activity.
MEA recordings were performed at 37° C. and 5% CO2 using Maestro Edge (from Axion Biosystems, Atlanta, GA). The medium was changed at least two hours before the recordings. Before recordings, levels of CO2 were adjusted to 5%. The duration of each recording was five minutes using AxIS Navigator 3.6.2 with configuration module Neural Real-Time; Spontaneous+Viability from Axion Biosystems with minimum spike rate for active electrodes of five spikes/minute.

Molecules are shown by their SMILES.

In the case of `O=C(Cc1cccc(OC(F)(F)F)c1)Nc1ccc(CCCCc2nnc(NC(=O)Cc3ccccn3)s2)nn1` [CB-839, Telaglenastat], in series [1], the viability of vandefitemcel result was “did not alter the viability”.

Consider `O=C(O)c1cc(=O)c2ccccc2[nH]1` [kynurenic acid, Kynurenic acid], for which the “spike activity of iFbN culture” value with glutamate receptor is reported as “reduction in the spike activity”.
